According to patent publication US12269823B2, “Crystal form of pyridopyrimidine derivative and preparation method thereof” (JIANGSU HENGRUI MEDICINE CO., LTD., priority 2020, dated 2025):

How the values were obtained:
[1] = target: T1, CYP3A4 (testosterone metabolic site) (Homo sapiens, UniProt P08684); experiment: Inhibition of testosterone metabolic site on human liver microsome CYP3A4; format: in vitro ADME; details: human liver microsomes, testosterone probe
T1 construct: Human liver microsome (Corning Gentest); tissue Corning Gentest; host or cells: human liver microsomes
Procedure: Test example 4. Inhibitory effect of the compound disclosed herein on enzymatic activity of testosterone metabolic site on human liver microsome CYP3A4
The inhibitory effect of the compound disclosed herein on the enzymatic activity of the testosterone metabolic site on human liver microsome CYP3A4 was determined by the following procedures:
• 1. Phosphate buffered saline (PBS), • 2. NADPH (Sigma N-1630), • 3. Human liver microsome (Corning Gentest), • 4. ABI QTrap 4000 LC-MS/MS System (AB Sciex), • 5. Inertsil C8-3 column, 4.6×50 mm, 5 (Dikma, USA), • 6. CYP probe substrate (testosterone/100 μM, SIGMA K1003) and positive control inhibitor (ketoconazole, Dr. Ehrenstorfer GmbH, C17322500). II. Procedures
A 100 mM PBS buffer was prepared and was used to prepare a 2.5 mg/mL microsome solution and a 5 mM NADPH solution. A compound working solution at 5× concentration was serially diluted with PBS (150, 50, 15, 5, 1.5, 0.15, 0.015 and 0 μM). A ketoconazole working solution at 5× concentration was serially diluted with PBS (150, 50, 15, 5, 1.5, 0.15, 0.015 and 0 μM). A dextromethorphan working solution was diluted to 50 μM with PBS. […]
The IC50 values of the drug for testosterone metabolic site on CYP3A4 were calculated by Graphpad Prism and are shown in Table 1-4.

[2] = system: IL-12 secretion in peripheral blood mononuclear cells (PBMCs); experiment: Stimulation of IL-12 secretion in PBMCs; format: cell-based, human; details: 24 h incubation
Procedure: Test example 5. Determination of the ability of the compound disclosed herein to stimulate IL-12 and IFNγ secretion in peripheral blood mononuclear cells (PBMCs) The ability of the compound disclosed herein to stimulate IL-12 and IFNγ secretion in PBMCs was determined by the following procedures:
• 1. RPMI 1640 (Invitrogen, 11875), • 2. FBS (Gibco, 10099-141), • 3. Ficoll-Paque PREMIUM (GE, 17-5442-02), • 4. Trypan blue solution (Sigma, T8154-100ML), • 5. SepMateTM-50 (Stemcell, 15460), • 6. Bright-Line™ cytometer (Sigma, Z359629-1EA), • 7. 96-well flat bottom plate (Corning, 3599), • 8. 96-well v-bottom plate (Corning, 3894), • 9. Human IL-12 ELISA kit (NEOBIOSCIENCE, EHC152.96), • 10. Human IFN γ kit (Cisbio, 62HIFNGPEG), • 11. PHERAStar Multi-Mode Microplate Reader (BMG, PHERAStar). II. Procedures […]
All reagents were equilibrated to room temperature. […] The cells were resuspended in RMPI 1640 culture medium containing 10% FBS, counted and adjusted to 3.33×10^6 cells/mL. […]
The reagents of the Human IL-12 detection kit was equilibrated to room temperature. […] Finally, a terminating solution was added to terminate the reaction, and the plate was detected for the absorbance at 450 nm using a microplate reader. […]
The ability of the compound disclosed herein to stimulate IL-12 and IFNγ secretion in PBMCs was determined by the above test and the MEC values obtained are shown in Table 1-5.

[3] = target: T2, TLR7 (Homo sapiens, UniProt Q9NYK1); details: background statement; cited from earlier work
T2 sequence (Q9NYK1 27-1049): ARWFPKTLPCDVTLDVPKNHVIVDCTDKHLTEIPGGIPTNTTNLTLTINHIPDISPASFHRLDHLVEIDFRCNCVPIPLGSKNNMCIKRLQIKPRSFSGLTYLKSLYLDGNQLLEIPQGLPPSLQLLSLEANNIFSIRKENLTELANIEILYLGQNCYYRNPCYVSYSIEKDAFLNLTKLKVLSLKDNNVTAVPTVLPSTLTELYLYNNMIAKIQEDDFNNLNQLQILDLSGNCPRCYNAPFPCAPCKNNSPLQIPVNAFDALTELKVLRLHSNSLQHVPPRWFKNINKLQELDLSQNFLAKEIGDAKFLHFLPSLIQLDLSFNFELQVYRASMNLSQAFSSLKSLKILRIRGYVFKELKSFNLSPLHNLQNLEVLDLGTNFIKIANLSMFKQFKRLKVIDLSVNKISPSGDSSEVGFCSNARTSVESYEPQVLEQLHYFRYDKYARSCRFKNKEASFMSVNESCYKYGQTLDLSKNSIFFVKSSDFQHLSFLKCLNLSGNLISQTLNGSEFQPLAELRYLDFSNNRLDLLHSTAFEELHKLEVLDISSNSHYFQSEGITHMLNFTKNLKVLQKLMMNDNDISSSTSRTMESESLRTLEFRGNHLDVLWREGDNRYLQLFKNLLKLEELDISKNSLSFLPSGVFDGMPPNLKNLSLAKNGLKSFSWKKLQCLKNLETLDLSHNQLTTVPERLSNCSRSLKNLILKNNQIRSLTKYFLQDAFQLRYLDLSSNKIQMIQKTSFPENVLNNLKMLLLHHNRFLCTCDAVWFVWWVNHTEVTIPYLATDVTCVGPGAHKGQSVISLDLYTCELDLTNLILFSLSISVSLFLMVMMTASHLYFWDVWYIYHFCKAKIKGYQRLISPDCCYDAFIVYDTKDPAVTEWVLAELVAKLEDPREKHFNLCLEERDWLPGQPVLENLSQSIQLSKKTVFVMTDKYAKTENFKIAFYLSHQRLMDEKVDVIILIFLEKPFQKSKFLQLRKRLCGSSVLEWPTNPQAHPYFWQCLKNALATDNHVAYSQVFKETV

[4] = system: Cyp and hERG; details: background statement; cited from earlier work
[5] = 30-day influencing factor stability test (heating, illumination, high humidity); format: physicochemical
Procedure: The crystalline form A and crystalline form B of the compound of formula (I) were transferred and let stand in clean open weighing bottles to test the stability under the conditions of heating (40° C., 60° C.), illumination (4500 1×±500 1×) and high humidity (90%±5%, 75%±5%) during an inspection period of 30 days.

[6] = Stability under long-term and accelerated conditions, 3 months; format: physicochemical
Procedure: The crystalline form B of the compound of formula (I) was examined for the stability under long-term (25° C., 60% RH) and accelerated (40° C., 75% RH) conditions in a period of 3 months.

T1 sequence (P08684 whole entry): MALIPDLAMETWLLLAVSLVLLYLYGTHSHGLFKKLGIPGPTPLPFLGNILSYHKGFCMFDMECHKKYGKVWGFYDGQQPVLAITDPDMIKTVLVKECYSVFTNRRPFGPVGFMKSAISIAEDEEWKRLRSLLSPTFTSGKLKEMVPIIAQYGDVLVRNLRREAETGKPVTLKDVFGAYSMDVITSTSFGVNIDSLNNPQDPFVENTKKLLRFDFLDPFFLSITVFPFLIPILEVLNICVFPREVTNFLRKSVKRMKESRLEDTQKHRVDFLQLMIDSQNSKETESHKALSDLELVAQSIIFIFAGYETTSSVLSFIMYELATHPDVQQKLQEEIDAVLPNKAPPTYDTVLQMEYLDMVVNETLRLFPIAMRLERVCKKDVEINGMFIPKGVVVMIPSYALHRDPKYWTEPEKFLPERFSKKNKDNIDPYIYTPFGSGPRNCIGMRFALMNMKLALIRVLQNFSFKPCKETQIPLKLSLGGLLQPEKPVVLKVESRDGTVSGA

SMILES	Activity on TLR7 (in words) [3]	Selectivity for Cyp and hERG (in words) [4]	Purity ([5]; 40° C., 5 days) [%]	Purity ([5]; 40° C., 10 days) [%]	Purity ([5]; 40° C., 30 days) [%]	Purity ([5]; 60° C., 5 days) [%]	Purity ([5]; 60° C., 10 days) [%]	Purity ([5]; 60° C., 30 days) [%]	Purity ([5]; 4500 lux, 5 days) [%]	Purity ([5]; 4500 lux, 10 days) [%]	Purity ([5]; 4500 lux, 30 days) [%]	Purity ([5]; Initial, 0 days) [%]	Purity ([5]; RH 75%, 5 days) [%]	Purity ([5]; RH 75%, 10 days) [%]	Purity ([5]; RH 75%, 30 days) [%]	Purity ([5]; RH 90%, 5 days) [%]	Purity ([5]; RH 90%, 10 days) [%]	Purity ([5]; RH 90%, 30 days) [%]	other results
CCCC[C@](C)(CO)Nc1nc(N)nc2cc(-c3ccc(CN4CCN(C)CC4)nc3)cnc12 [Example 1, (R)-2-((2-amino-7-(6-((4-methylpiperazin-1-yl)methyl)pyridin-3-yl)pyrido[3,2-d]pyrimidin-4-yl)amino)-2-methylhexan-1-ol]																			IC50 at 30 min [1]: > 30 µM; IL-12 MEC (minimum effective concentration) [2]: 41 nM
CCCC[C@](C)(CO)Nc1nc(N)nc2cc(F)cnc12 [GS-9688]	certain activity on TLR7	poor selectivity for Cyp and hERG																	
CCCN(CCC)C(=O)C1=Cc2ccc(-c3ccc(C(=O)N4CCCC4)cc3)cc2N=C(N)C1 [VTX-2337]	certain activity on TLR7	poor selectivity for Cyp and hERG																	
CCCC[C@](C)(CO)Nc1nc(N)nc2cc(-c3ccc(CN4CCN(C)CC4)nc3)cnc12 [crystalline form A]			96.98	96.98	95.47	95.87	95.72	93.74	95.82	94.99	92.51	97.83	97.83	97.85	97.47	97.91	97.84	97.53	
CCCC[C@](C)(CO)Nc1nc(N)nc2cc(-c3ccc(CN4CCN(C)CC4)nc3)cnc12 [crystalline form B]			98.19	98.17	97.23	97.87	97.53	96.24	95.48	92.61	88.03	98.65	98.65	98.69	97.96	98.69	98.75	97.99	Physical and chemical stability (in words) ([6]; 3 months, long-term (25° C., 60% RH) and accelerated (40° C., 75% RH)): good physical and chemical stabilities; Purity ([6]; 25° C., 60% RH, Initial): 99.71%; Purity ([6]; 25° C., 60% RH, Month 1): 99.70%; Purity ([6]; 25° C., 60% RH, Month 2): 99.71%; Purity ([6]; 25° C., 60% RH, Month 3): 99.62%; Purity ([6]; 40° C., 75% RH, Initial): 99.71%; Purity ([6]; 40° C., 75% RH, Month 1): 99.69%; Purity ([6]; 40° C., 75% RH, Month 2): 99.68%; Purity ([6]; 40° C., 75% RH, Month 3): 99.54%
